ChEMBL document CHEMBL1201862, “PubChem BioAssay data set” (2004)
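Cultured in 96-well plates, cells were exposed to test compound for 48 hours across five concentrations. GI50 = concentration required for 50% inhibition of growth.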 Activity calls are given as the source filed them. No stated cut-off is given here; in the data, active = GI50 up to about 1.1 µM and inactive = higher.

Legend:
Assay in all cases: growth of human tumour cells (NCI), 48 h
SNB-19 = system: SNB-19
OVCAR-5 = system: OVCAR-5
OVCAR-3 = system: OVCAR-3
UACC-62 = system: UACC-62
CCRF-CEM = system: CCRF-CEM
SK-MEL-2 = system: SK-MEL-2
RXF 393 = system: RXF 393
KM-20L2 = system: KM-20L2
ACHN = system: ACHN
M14 = system: M14
SNB-75 = system: SNB-75
TK-10 = system: TK-10
U-251 = system: U-251
HOP-92 = system: HOP-92
SK-OV-3 = system: SK-OV-3
COLO 205 = system: COLO 205
PC-3 = system: PC-3
SR = system: SR
Hs-578T = system: Hs-578T
MDA-N = system: MDA-N

| Compound | GI50 (SNB-19) | GI50 (OVCAR-5) | GI50 (OVCAR-3) | GI50 (UACC-62) | GI50 (CCRF-CEM) | GI50 (SK-MEL-2) | GI50 (RXF 393) | GI50 (KM-20L2) | GI50 (ACHN) | GI50 (M14) | GI50 (SNB-75) | GI50 (TK-10) | GI50 (U-251) | GI50 (HOP-92) | GI50 (SK-OV-3) | GI50 (COLO 205) | GI50 (PC-3) | GI50 (SR) | GI50 (Hs-578T) | GI50 (MDA-N) |
| --- | --- | --- | --- | --- | --- | --- | --- | --- | --- | --- | --- | --- | --- | --- | --- | --- | --- | --- | --- | --- |
| COCC1N=C(c2cc(OC)c(OC)c(OC)c2-c2cc3c(cc2C2OCCCO2)OCO3)O[C@H]1c1ccccc1 (some centres not stated) | > 100 µM (inactive) | > 100 µM (inactive) | > 100 µM (inactive) | > 100 µM (inactive) | > 100 µM (inactive) | > 100 µM (inactive) | > 100 µM (inactive) | > 100 µM (inactive) | > 100 µM (inactive) | > 100 µM (inactive) | > 100 µM (inactive) | > 100 µM (inactive) | > 100 µM (inactive) | > 100 µM (inactive) | > 100 µM (inactive) | – | – | – | – | – |
| CCCCCCCCCCCCCC(=O)NCC(OCC)OCC | > 100 µM (inactive) | > 100 µM (inactive) | > 100 µM (inactive) | > 100 µM (inactive) | > 100 µM (inactive) | > 100 µM (inactive) | > 100 µM (inactive) | > 100 µM (inactive) | > 100 µM (inactive) | > 100 µM (inactive) | > 100 µM (inactive) | > 100 µM (inactive) | > 100 µM (inactive) | > 100 µM (inactive) | > 100 µM (inactive) | > 100 µM (inactive) | – | – | – | – |
| C/C(=N\NC(=S)N1CCCCCC1)c1nccnc1C | – | 0.169 µM (active) | < 0.01 µM (active) | < 0.01 µM (active) | 0.0607 µM (active) | 12.8 µM (inactive) | 0.231 µM (active) | < 0.01 µM (active) | 0.219 µM (active) | < 0.01 µM (active) | 0.605 µM (active) | 0.56 µM (active) | 0.2 µM (active) | – | – | < 0.01 µM (active) | – | – | – | – |
| C[C@@H](c1ccccc1)N1CN(C(=O)OCc2ccccc2)C(C)(C)CC1=O | > 100 µM (inactive) | > 100 µM (inactive) | > 100 µM (inactive) | > 100 µM (inactive) | > 100 µM (inactive) | > 100 µM (inactive) | 15.5 µM (inactive) | – | > 100 µM (inactive) | > 100 µM (inactive) | > 100 µM (inactive) | > 100 µM (inactive) | > 100 µM (inactive) | > 100 µM (inactive) | > 100 µM (inactive) | > 100 µM (inactive) | > 100 µM (inactive) | 86.3 µM (inactive) | > 100 µM (inactive) | > 100 µM (inactive) |
| Nc1n[c-](N)[n+](=O)c(N)c1NCO | > 100 µM (inactive) | > 100 µM (inactive) | > 100 µM (inactive) | > 100 µM (inactive) | > 100 µM (inactive) | > 100 µM (inactive) | > 100 µM (inactive) | – | > 100 µM (inactive) | > 100 µM (inactive) | > 100 µM (inactive) | > 100 µM (inactive) | > 100 µM (inactive) | > 100 µM (inactive) | > 100 µM (inactive) | > 100 µM (inactive) | > 100 µM (inactive) | > 100 µM (inactive) | > 100 µM (inactive) | > 100 µM (inactive) |
| CN1CCc2ccccc2C(C(=O)c2ccc3c(c2)OCO3)C1=O (configuration not stated) | > 100 µM (inactive) | – | > 100 µM (inactive) | > 100 µM (inactive) | > 100 µM (inactive) | > 100 µM (inactive) | > 100 µM (inactive) | > 100 µM (inactive) | > 100 µM (inactive) | > 100 µM (inactive) | > 100 µM (inactive) | > 100 µM (inactive) | > 100 µM (inactive) | > 100 µM (inactive) | > 100 µM (inactive) | > 100 µM (inactive) | – | – | – | – |
| O=c1[nH]c(=O)n(C2CC(O)C(CO)O2)cc1C(OCC(F)(F)F)OCC(F)(F)F (configuration not stated) | > 100 µM (inactive) | > 100 µM (inactive) | > 100 µM (inactive) | > 100 µM (inactive) | 70.8 µM (inactive) | > 100 µM (inactive) | > 100 µM (inactive) | > 100 µM (inactive) | > 100 µM (inactive) | > 100 µM (inactive) | > 100 µM (inactive) | > 100 µM (inactive) | > 100 µM (inactive) | > 100 µM (inactive) | > 100 µM (inactive) | > 100 µM (inactive) | – | – | – | – |
| COc1cc2cc(C(=O)N3C[C@H](CCl)c4c3cc(O)c3ccccc43)[nH]c2c(OC)c1OC | 0.246 µM (active) | 0.264 µM (active) | 0.279 µM (active) | 0.106 µM (active) | 0.207 µM (active) | 0.203 µM (active) | 0.0459 µM (active) | – | 0.0393 µM (active) | 0.159 µM (active) | 0.184 µM (active) | 0.277 µM (active) | 0.1 µM (active) | 0.309 µM (active) | 0.515 µM (active) | 1.32 µM (inactive) | 0.267 µM (active) | 0.0224 µM (active) | 0.234 µM (active) | 1.29 µM (inactive) |
